Data as given in patent US20210323949A1, “COMPOUNDS AND METHODS FOR INHIBITION OF MULTIPLE MYELOMA” (FLORIDA ATLANTIC UNIVERSITY BOARD OF TRUSTEES, priority 2018, published 2021).

Assays:
[1] = system: MSCs and monocytic cells (RAW 267); assay: Proliferation of stromal cells of the bone microenvironment
mature osteoclasts = assay: Inhibitor added to mature osteoclasts, TRAP-positive osteoclasts counted; conditions: TRAP positive osteoclasts counted after 5 days
[2] = system: bone marrow-derived macrophages (BMMs); conditions: bone marrow co-cultures/BMMs with M-CSF and RANKL, counted after 5 days
[3] = system: 5TGM1 luciferase expressing multiple myeloma cells; assay: 5TGM1 multiple myeloma mouse model; type: in vivo, Mice (C57BL/6 KalwRij)
Experimental: FIG. 5A is a set of images and FIG. 5B and FIG. 5C are graphs showing the efficacy of RF-036 (MMP-13i) for the treatment of multiple myeloma. FIG. 5A, 5B: Mice (C57BL/6 KalwRij) were inoculated with 5TGM1 luciferase expressing multiple myeloma cells (1×10^6) and after 10 days randomized into vehicle (n=7) or MMP-13i (n=6) groups. Mice were treated daily with RF-036 at 2 mg/kg via intraperitoneal injection. Bioluminescence (FIG. 5A) was quantitated every 3-4 days (FIG. 5B). […] Asterisks denote statistical significance.
FIG. 7 is a Kaplan-Meier curve of overall survival time of 5TGM1 multiple myeloma bearing mice treated with RF-036 (MMP-13i) (n=6; 2 mg/kg daily) or vehicle control (n=7). The median survival time for the RF-036 group was 46 days compared to 41 for the vehicle control group.
The overall survival time of 5TGM1 multiple myeloma bearing mice treated with RF-036 (MMP-13i) (n=6; 2 mg/kg daily) was compared to vehicle control (n=7) (FIG. 7). The median survival time for the RF-036 group was 46 days compared to 41 for the vehicle control group.

[4] = system: multiple myeloma cell lines; assay: Viability/proliferation of multiple myeloma cell lines; type: cell-based; conditions: over 48 h

## CNC(=O)[C@@H](NC(=O)c1ccc(-c2ccc(CSc3nc4c(c(=O)[nH]3)CCC4)c(F)c2)o1)C(C)C [RF-036]
[1]
  effects on stromal cells (MSCs and monocytes): minimal effects
Mature osteoclasts
  cell viability of mature osteoclasts: no effect on cell viability
[2]
  osteoclast formation (number of TRAP-positive osteoclasts per well): significantly mitigated osteoclast formation
[3]; 2 mg/kg daily i.p., day 28, vs vehicle
  IgG2b in serum (readout for tumor burden): significant differences between the vehicle and RF-036 groups
[3]; 2 mg/kg daily, intraperitoneal injection
  growth of multiple myeloma in vivo (bioluminescence): significantly reduces the growth of multiple myeloma
[3]; 5TGM1 bearing mice, 2 mg/kg daily, n=6
  median survival time: 46 days
[3]; multiple myeloma bearing mice, 2 mg/kg daily
  overall survival: increases overall survival
[4]
  impact on viability of multiple myeloma cell lines: up to 50%
